By GI50 is commonly meant the concentration that inhibits growth by half.

Data on 31 molecules can be found in patent US11254676B2, “Pyrazole derivative compound and use thereof” (HANMI PHARM. CO., LTD., priority 2017, dated 2022).

The test system of the experiment is NCI-H1417 cells. Nature of the experiment: Cell growth suppression test, CellTiter-Glo Luminescent Cell Viability Assay. The note with it: Homo sapiens, 240 h; NCI-H1417 cells treated for 10 days. The class given is cell-based. Here is the method: Cell growth suppression effects of the synthesized compounds on NCI-H1417 cells were identified. The cells were treated with the synthesized compounds for 10 days. Then, in order to test the cell growth suppression, CellTiter-Glo Luminescent Cell Viability Assay (available from Promega, USA) was used. This test is to measure emission signals proportional to the number of ATPs based on a fixed amount of ATPs, which represents the presence of metabolically active cells, thereby determining the number of viable cells. The results are expressed as a GI50 value. As for a control, GSK2879552 (available from GlaxoSmithKline USA) was used.
Background: In ATP-based viability assays light output follows the ATP content of the culture.

`N#Cc1ccc(-c2cc(C(=O)N3CCC[C@@H](N)C3)nn2-c2ccc(C3CC3)cc2)cc1` [Example 1, (R)-4-(3-(3-aminopiperidine-1-carbonyl)-1-(4-cyclopropylphenyl)-1H-pyrazole-5-yl)benzonitrile] registered a GI50 of 94 nM. As to `CN[C@@H]1CCCN(C(=O)c2cc(-c3ccc(C#N)cc3)n(-c3ccc(C4CC4)cc3)n2)C1` [Example 2, (R)-4-(1-(4-cyclopropylphenyl)-3-(3-methylaminopiperidine-1-carbonyl)-1H-pyrazole-5-yl)benzonitrile], the 50% growth inhibitory concentration (GI50) was 120 nM.

The molecule `N#Cc1ccc(-c2cc(C(=O)N3CCC[C@@H](N)C3)nn2-c2ccc(C3CC3)cc2F)cc1` [Example 3, (R)-4-(3-(3-aminopiperidine-1-carbonyl)-1-(4-cyclopropyl-2-fluorophenyl)-1H-pyrazole-5-yl)benzonitrile] gave a 50% growth inhibitory concentration (GI50) of 49 nM. For `CN[C@@H]1CCCN(C(=O)c2cc(-c3ccc(C#N)cc3)n(-c3ccc(C4CC4)cc3F)n2)C1` [Example 4, (R)-4-(1-(4-cyclopropyl-2-fluorophenyl)-3-(3-(methylamino)piperidine-1-carbonyl)-1H-pyrazole-5-yl)benzonitrile], the 50% growth inhibitory concentration (GI50) came to 24 nM.

For the molecule `N#Cc1ccc(-c2cc(C(=O)N3CCC[C@@H](N)C3)nn2-c2ccc(C3CC3)cc2F)cc1F` [Example 5, (R)-4-(3-(3-aminopiperidine-1-carbonyl)-1-(4-cyclopropyl-2-fluorophenyl)-1H-pyrazole-5-yl)-2-fluorobenzonitrile], growth was halved (GI50) at 48 nM. With `N#Cc1ccc(-c2cc(C(=O)N3CCCC[C@@H](N)C3)nn2-c2ccc(C3CC3)cc2F)cc1F` [Example 8, (R)-4-(3-(3-aminoazepane-1-carbonyl)-1-(4-cyclopropyl-2-fluorophenyl)-1H-pyrazole-5-yl)-2-fluorobenzonitrile] the figure was 101 nM. With `N#Cc1ccc(-c2cc(C(=O)N3CCC[C@@H](N)C3)nn2-c2c(F)cc(C3CC3)cc2F)cc1F` [Example 10, (R)-4-(3-(3-aminopiperidine-1-carbonyl)-1-(4-cyclopropyl-2,6-difluorophenyl)-1H-pyrazole-5-yl)-2-fluorobenzonitrile] the figure was 108 nM; with `CC(C)c1ccc(-n2nc(C(=O)N3CCC[C@@H](N)C3)cc2-c2ccc(C#N)cc2)cc1` [Example 35, (R)-4-(3-(3-aminopiperidine-1-carbonyl)-1-(4-isopropylphenyl)-1H-pyrazole-5-yl)benzonitrile], 145 nM; with `CN[C@@H]1CCCN(C(=O)c2cc(-c3ccc(C#N)cc3)n(-c3ccc(C(C)C)cc3)n2)C1` [Example 36, (R)-4-(1-(4-isopropylphenyl)-3-(3-(methylamino)piperidine-1-carbonyl)-1H-pyrazole-5-yl) benzonitrile], 91 nM.

In the case of `CC(C)c1ccc(-n2nc(C(=O)N3CCC[C@@H](N)C3)cc2-c2ccc(C#N)cc2)c(F)c1` [Example 37, (R)-4-(3-(3-aminopiperidine-1-carbonyl)-1-(2-fluoro-4-isopropylphenyl)-1H-pyrazole-5-yl) benzonitrile], the GI50 came to 215 nM.

`CC(C)c1ccc(-n2nc(C(=O)N3CCC[C@@H](N)C3)cc2-c2ccc(C#N)c(F)c2)c(F)c1` [Example 38, (R)-4-(3-(3-aminopiperidine-1-carbonyl)-1-(2-fluoro-4-isopropylphenyl)-1H-pyrazole-5-yl)-2-fluorobenzonitrile] returned a GI50 of 79 nM. Turning to `CC(C)c1ccc(-n2nc(C(=O)N3CCCC[C@@H](N)C3)cc2-c2ccc(C#N)c(F)c2)c(F)c1` [Example 39, (R)-4-(3-(3-aminoazepane-1-carbonyl)-1-(2-fluoro-4-isopropylphenyl)-1H-pyrazole-5-yl)-2-fluorobenzonitrile], the concentration for 50% growth inhibition (GI50) came out at 139 nM. With `CC(C)(C)c1ccc(-n2nc(C(=O)N3CCC[C@@H](N)C3)cc2-c2ccc(C#N)cc2)cc1` [Example 40, (R)-4-(3-(3-aminopiperidine-1-carbonyl)-1-(4-(tert-butyl)phenyl)-1H-pyrazole-5-yl)benzonitrile], the 50% growth inhibitory concentration (GI50) turned out to be 226 nM. Then `CN[C@@H]1CCCN(C(=O)c2cc(-c3ccc(C#N)cc3)n(-c3ccc(C(C)(C)C)cc3)n2)C1` [Example 41], with 126 nM; and `CC(C)(C)c1ccc(-n2nc(C(=O)N3CCC[C@@H](N)C3)cc2-c2ccc(C#N)cc2)c(F)c1` [Example 42, (R)-4-(3-(3-aminopiperidine-1-carbonyl)-1-(4-(tert-butyl)-2-fluorophenyl)-1H-pyrazole-5-yl)benzonitrile], with 226 nM; and `CC(C)(C)c1ccc(-n2nc(C(=O)N3CCC[C@@H](N)C3)cc2-c2ccc(C#N)c(F)c2)c(F)c1` [Example 43], with 69 nM. `CC(C)(C)c1ccc(-n2nc(C(=O)N3CCCC[C@@H](N)C3)cc2-c2ccc(C#N)c(F)c2)c(F)c1` [Example 44] returned a GI50 of 133 nM. Then `CN(C)c1ccc(-n2nc(C(=O)N3CCC[C@@H](N)C3)cc2-c2ccc(C#N)cc2)cc1` [Example 53], with 102 nM.

Turning to `CN(C)c1ccc(-n2nc(C(=O)N3CCC[C@@H](N)C3)cc2-c2ccc(C#N)cc2)c(F)c1` [Example 54, (R)-4-(3-(3-aminopiperidine-1-carbonyl)-1-(4-(dimethylamino)-2-fluorophenyl)-1H-pyrazole-5-yl)benzonitrile], it took 84 nM to inhibit growth by half (GI50). With `N#Cc1ccc(-c2cc(C(=O)N3CCC[C@@H](N)C3)nn2-c2ccc(N3CCCC3)cc2F)cc1` [Example 57, (R)-4-(3-(3-aminopiperidine-1-carbonyl)-1-(2-fluoro-4-(pyrrolidine-1-yl)phenyl)-1H-pyrazole-5-yl)benzonitrile] the figure was 45 nM; with `N#Cc1ccc(-c2cc(C(=O)N3CCC[C@@H](N)C3)nn2-c2ccc(N3CCCC3)cc2F)cc1F` [Example 58, (R)-4-(3-(3-aminopiperidine-1-carbonyl)-1-(2-fluoro-4-(pyrrolidine-1-yl)phenyl)-1H-pyrazole-5-yl)-2-fluorobenzonitrile], 24 nM; with `CN[C@@H]1CCCN(C(=O)c2cc(-c3ccc(C#N)c(F)c3)n(-c3ccc(N4CCCC4)cc3F)n2)C1` [Example 59, (R)-2-fluoro-4-(1-(2-fluoro-4-(pyrrolidine-1-yl)phenyl)-3-(3-(methylamino)piperidine-1-carbonyl)-1H-pyrazole-5-yl)benzonitrile], 9.7 nM. In turn, `N#Cc1ccc(-c2cc(C(=O)N3CCCC[C@@H](N)C3)nn2-c2ccc(N3CCCC3)cc2F)cc1F` [Example 60, (R)-4-(3-(3-aminoazepane-1-carbonyl)-1-(2-fluoro-4-(pyrrolidine-1-yl)phenyl)-1H-pyrazole-5-yl)-2-fluorobenzonitrile] came in with a GI50 of 53 nM.

With `N#Cc1ccc(-c2cc(C(=O)N3CCC[C@@H](N)C3)nn2-c2ccc(N3CC[C@@H](F)C3)cc2F)cc1F` [Example 61, 4-(3-((R)-3-aminopiperidine-1-carbonyl)-1-(2-fluoro-4-((R)-3-fluoropyrrolidine-1-yl)phenyl)-1H-pyrazole-5-yl)-2-fluorobenzonitrile], the GI50 was determined as 82 nM. Consider `N#Cc1ccc(-c2cc(C(=O)N3CCC[C@@H](N)C3)nn2-c2ccc(N3CCC(F)(F)C3)cc2F)cc1F` [Example 63, (R)-4-(3-(3-aminopiperidine-1-carbonyl)-1-(4-(3,3-difluoropyrrolidine-1-yl)-2-fluorophenyl)-1H-pyrazole-5-yl)-2-fluorobenzonitrile], for which the GI50 was 33 nM. With `CN[C@@H]1CCCN(C(=O)c2cc(-c3ccc(C#N)c(F)c3)n(-c3ccc(N4CCC(F)(F)C4)cc3F)n2)C1` [Example 64, (R)-4-(1-(4-(3,3-difluoropyrrolidine-1-yl)-2-fluorophenyl)-3-(3-(methylamino)piperidine-1-carbonyl)-1H-pyrazole-5-yl)-2-fluorobenzonitrile] the figure was 19 nM; with `COC1CCN(c2ccc(-n3nc(C(=O)N4CCC[C@@H](N)C4)cc3-c3ccc(C#N)c(F)c3)c(F)c2)C1` (stereo partly drawn) [Example 65, 4-(3-((R)-3-aminopiperidine-1-carbonyl)-1-(2-fluoro-4-(3-methoxypyrrolidin-1-yl)phenyl)-1H-pyrazol-5-yl)-2-fluorobenzonitrile], 58 nM. Then `CN[C@@H]1CCCN(C(=O)c2cc(-c3ccc(C#N)c(F)c3)n(-c3ccc(N4CCC(OC)C4)cc3F)n2)C1` (stereo partly drawn) [Example 66, 2-fluoro-4-(1-(2-fluoro-4-(3-methoxypyrrolidine-1-yl)phenyl)-3-((R)-3-(methylamino)piperidine-1-carbonyl)-1H-pyrazole-5-yl)benzonitrile], with 16 nM. Molecule `CO[C@H]1CCN(c2ccc(-n3nc(C(=O)N4CCC[C@@H](N)C4)cc3-c3ccc(C#N)c(F)c3)c(F)c2)C1` [Example 67, 4-(3-((R)-3-aminopiperidine-1-carbonyl)-1-(2-fluoro-4-((S)-3-methoxypyrrolidine-1-yl)phenyl)-1H-pyrazole-5-yl)-2-fluorobenzonitrile] came in with a GI50 of 30 nM. Then `CN[C@@H]1CCCN(C(=O)c2cc(-c3ccc(C#N)c(F)c3)n(-c3ccc(N4CC[C@H](OC)C4)cc3F)n2)C1` [Example 68, 2-fluoro-4-(1-(2-fluoro-4-((S)-3-methoxypyrrolidine-1-yl)phenyl)-3-((R)-3-(methylamino)piperidine-1-carbonyl)-1H-pyrazole-5-yl)benzonitrile], with 6.8 nM. Then `CO[C@@H]1CCN(c2ccc(-n3nc(C(=O)N4CCC[C@@H](N)C4)cc3-c3ccc(C#N)c(F)c3)c(F)c2)C1` [Example 69, 4-(3-((R)-3-aminopiperidine-1-carbonyl)-1-(2-fluoro-4-((R)-3-methoxypyrrolidine-1-yl)phenyl)-1H-pyrazole-5-yl)-2-fluorobenzonitrile], with 38 nM.
